From PubChem BioAssay AID330 (DTP/NCI, 2004)
“And” between values parts separate entries of the source, which are not always exact repeats. Equal entries are not always repeated. Toxic doses and inconclusive results are not listed.

System: P388 leukemia ip, CD2F1 mice, survival T/C
Assay: NCI In Vivo Anticancer Drug Screen. Data for tumor model P388 Leukemia (intraperitoneal) in CD2F1 (CDF1) mice
Settings: endpoint: median survival time, higher = longer survival
Method in brief: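 Mice carrying the transplanted tumor received test compound or vehicle. Survival was recorded in each group, and the value is the treated-group measurement divided by that of the vehicle-treated control group.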

[1] = dose: 60.0 mg/kg/injection, schedule: Q01DX005 (ip), vehicle: saline with Tween-80
[2] = dose: 120.0 mg/kg/injection, schedule: Q01DX005 (ip), vehicle: saline with Tween-80
[3] = dose: 240.0 mg/kg/injection, schedule: Q01DX005 (ip), vehicle: saline with Tween-80
[4] = dose: 50.0 mg/kg/injection, schedule: Q01DX009 (ip), vehicle: saline
[5] = dose: 100.0 mg/kg/injection, schedule: Q01DX009 (ip), vehicle: saline
[6] = dose: 200.0 mg/kg/injection, schedule: Q01DX009 (ip), vehicle: saline
[7] = dose: 50.0 mg/kg/injection, schedule: Q01DX009 (ip), vehicle: Klucel (hydroxypropylcellulose) (HPC)
[8] = dose: 100.0 mg/kg/injection, schedule: Q01DX009 (ip), vehicle: Klucel (hydroxypropylcellulose) (HPC)
[9] = dose: 200.0 mg/kg/injection, schedule: Q01DX009 (ip), vehicle: Klucel (hydroxypropylcellulose) (HPC)

With `Cc1ccc(S(=O)(=O)N/N=C/c2cc([N+](=O)[O-])ccc2O)cc1` the T/C (dose: 12.5 mg/kg/injection, schedule: Q01DX005 (ip), vehicle: distilled water + Tween-80) was 93 % of control, the T/C (dose: 25.0 mg/kg/injection, schedule: Q01DX005 (ip), vehicle: distilled water + Tween-80) was 100 % of control and the T/C (dose: 50.0 mg/kg/injection, schedule: Q01DX005 (ip), vehicle: distilled water + Tween-80) was 112 % of control. For the same compound, the T/C (dose: 100.0 mg/kg/injection, schedule: Q01DX005 (ip), vehicle: distilled water + Tween-80) was 105 % of control.
With `Cc1cc(=O)[nH]c(NNC(=O)c2ccc(Cl)cc2)n1` the T/C (dose: 25.0 mg/kg/injection, schedule: Q01DX009 (ip), vehicle: distilled water + Tween-80) was 93 % of control, the T/C (dose: 50.0 mg/kg/injection, schedule: Q01DX009 (ip), vehicle: distilled water + Tween-80) was 86 % of control and the T/C (dose: 100.0 mg/kg/injection, schedule: Q01DX009 (ip), vehicle: distilled water + Tween-80) was 93 % of control. For the same compound, the T/C (dose: 200.0 mg/kg/injection, schedule: Q01DX009 (ip), vehicle: distilled water + Tween-80) was 89 % of control and the T/C (dose: 400.0 mg/kg/injection, schedule: Q01DX009 (ip), vehicle: distilled water + Tween-80) was 101 % of control.
`O=S(=O)(O/C(=C(\OS(=O)(=O)C(F)(F)C(F)(F)C(F)(F)C(F)(F)F)c1ccccc1)c1ccccc1)C(F)(F)C(F)(F)C(F)(F)C(F)(F)F` was tested, and the T/C [1] was 99 % of control, the T/C [2] was 107 % of control and the T/C [3] was 99 % of control.
`c1cc2n(n1)CCN2` was tested, and the T/C (dose: 12.5 mg/kg/injection, schedule: Q01DX009 (ip), vehicle: saline) was 104 % of control, the T/C (dose: 25.0 mg/kg/injection, schedule: Q01DX009 (ip), vehicle: saline) was 109 % of control and the T/C [4] was 100 % of control and 104 % of control. For the same compound, the T/C (dose: 80.0 mg/kg/injection, schedule: Q01DX009 (ip), vehicle: saline) was 111 % of control, the T/C [5] was 111 % of control and 120 % of control and the T/C (dose: 120.0 mg/kg/injection, schedule: Q01DX009 (ip), vehicle: saline) was 113 % of control. For the same compound, the T/C [6] was 100 % of control, the T/C (dose: 225.0 mg/kg/injection, schedule: Q03DX003 (ip), vehicle: saline) was 111 % of control and the T/C (dose: 264.0 mg/kg/injection, schedule: Q04DX003 (ip), vehicle: saline) was 100 % of control. The T/C (dose: 300.0 mg/kg/injection, schedule: Q03DX003 (ip), vehicle: saline) was 111 % of control, the T/C (dose: 375.0 mg/kg/injection, schedule: Q03DX003 (ip), vehicle: saline) was 124 % of control and the T/C (dose: 400.0 mg/kg/injection, schedule: Q04DX003 (ip), vehicle: saline) was 118 % of control.
With `CCCc1[nH]n(-c2cccc([N+](=O)[O-])c2)c(=O)c1N=Nc1ccc(Cl)cc1` the T/C [4] was 93 % of control, the T/C [5] was 90 % of control and the T/C [6] was 87 % of control.
`Cc1cc2nc(-c3cc4cc(Cl)cc(Cl)c4oc3=O)[nH]c2cc1C` was tested, and the T/C (dose: 25.0 mg/kg/injection, schedule: Q01DX005 (ip), vehicle: Klucel (hydroxypropylcellulose) (HPC)) was 98 % of control, the T/C (dose: 50.0 mg/kg/injection, schedule: Q01DX005 (ip), vehicle: Klucel (hydroxypropylcellulose) (HPC)) was 95 % of control and the T/C (dose: 100.0 mg/kg/injection, schedule: Q01DX005 (ip), vehicle: Klucel (hydroxypropylcellulose) (HPC)) was 96 % of control. The T/C (dose: 200.0 mg/kg/injection, schedule: Q01DX005 (ip), vehicle: Klucel (hydroxypropylcellulose) (HPC)) was 96 % of control.
For `CC[C@]12CN3CCc4c([nH]c5ccccc45)[C@@](C(=O)OC)(c4cc5c(cc4OC)N(C)[C@H]4[C@@](O)(C(=O)OC)[C@H](OC(C)=O)[C@]6(CC)C=CCN7CC[C@]54[C@@H]76)CC(C3)[C@H]1O2` (some centres undefined), the T/C (dose: 0.05 mg/kg/injection, schedule: Q01DX009 (ip), vehicle: saline) was 101 % of control, the T/C (dose: 0.1 mg/kg/injection, schedule: Q01DX009 (ip), vehicle: saline) was 104 % of control and the T/C (dose: 0.2 mg/kg/injection, schedule: Q01DX009 (ip), vehicle: saline) was 104 % of control. For the same compound, the T/C (dose: 0.4 mg/kg/injection, schedule: Q01DX009 (ip), vehicle: saline) was 103 % of control, the T/C (dose: 0.5 mg/kg/injection, schedule: Q01DX001 (ip), vehicle: water) was 104 % of control and the T/C (dose: 0.75 mg/kg/injection, schedule: Q01DX009 (ip), vehicle: saline) was 114 % of control. The T/C (dose: 0.8 mg/kg/injection, schedule: Q01DX009 (ip), vehicle: saline) was 107 % of control, the T/C (dose: 1.0 mg/kg/injection, schedule: Q01DX001 (ip), vehicle: water) was 95 % of control and the T/C (dose: 1.6 mg/kg/injection, schedule: Q01DX009 (ip), vehicle: saline) was 113 % of control. The T/C (dose: 2.0 mg/kg/injection, schedule: Q01DX001 (ip), vehicle: water) was 108 % of control, the T/C (dose: 3.0 mg/kg/injection, schedule: Q01DX009 (ip), vehicle: saline) was 117 % of control and the T/C (dose: 3.2 mg/kg/injection, schedule: Q01DX009 (ip), vehicle: saline) was 110 % of control. The T/C (dose: 4.0 mg/kg/injection, schedule: Q01DX001 (ip), vehicle: water) was 116 % of control, the T/C (dose: 6.0 mg/kg/injection, schedule: Q01DX009 (ip), vehicle: saline sonified) was 173 % of control and the T/C (dose: 6.0 mg/kg/injection, schedule: Q01DX009 (ip), vehicle: saline) was 156 % of control and 160 % of control. The T/C (dose: 6.4 mg/kg/injection, schedule: Q01DX009 (ip), vehicle: saline) was 120 % of control, the T/C (dose: 8.0 mg/kg/injection, schedule: Q01DX001 (ip), vehicle: water) was 122 % of control and the T/C (dose: 12.0 mg/kg/injection, schedule: Q01DX009 (ip), vehicle: saline sonified) was 121 % of control. For the same compound, the T/C (dose: 12.0 mg/kg/injection, schedule: Q01DX009 (ip), vehicle: saline) was 176 % of control and 220 % of control and the T/C (dose: 24.0 mg/kg/injection, schedule: Q01DX009 (ip), vehicle: saline) was 117 % of control.
With `Cn1ncc2c(Cl)ncnc21` the T/C [7] was 91 % of control, the T/C [8] was 93 % of control and the T/C [9] was 107 % of control.
In the case of `COC(=O)c1ccc(/C=C(\c2ccc([N+](=O)[O-])o2)S(=O)(=O)c2ccc(NC(C)=O)cc2)o1`, the T/C (dose: 50.0 mg/kg/injection, schedule: Q01DX009 (ip), vehicle: suspension in saline) is reported as 95 % of control and the T/C (dose: 100.0 mg/kg/injection, schedule: Q01DX009 (ip), vehicle: suspension in saline) is reported as 88 % of control.
In the case of `CCCCC(NC(=O)CCl)C(=O)O` (centres undefined), the T/C [4] is reported as 98 % of control, the T/C [5] is reported as 95 % of control and the T/C [6] is reported as 98 % of control.
In the case of `O=c1[nH]cc(F)c(=O)[nH]1.[Tl]`, the T/C (dose: 0.78 mg/kg/injection, schedule: Q01DX009 (ip), vehicle: Klucel (hydroxypropylcellulose) (HPC)) is reported as 99 % of control, the T/C (dose: 1.56 mg/kg/injection, schedule: Q01DX009 (ip), vehicle: Klucel (hydroxypropylcellulose) (HPC)) is reported as 103 % of control and the T/C (dose: 3.13 mg/kg/injection, schedule: Q01DX009 (ip), vehicle: Klucel (hydroxypropylcellulose) (HPC)) is reported as 115 % of control.
`CCOC(=O)Nc1nn(-c2ccc3ccccc3n2)c(=O)[nH]1` was tested, and the T/C [7] was 113 % of control, the T/C [8] was 109 % of control and the T/C [9] was 118 % of control.
In the case of `CC/C(=C(/CC)c1ccc(O)c(N(CCCl)CCCl)c1)c1ccc(O)c(N(CCCl)CCCl)c1`, the T/C (dose: 7.5 mg/kg/injection, schedule: Q01DX009 (ip), vehicle: saline) is reported as 106 % of control, the T/C (dose: 15.0 mg/kg/injection, schedule: Q01DX009 (ip), vehicle: saline) is reported as 89 % of control and the T/C (dose: 30.0 mg/kg/injection, schedule: Q01DX009 (ip), vehicle: saline) is reported as 105 % of control.
In the case of `Nc1ncnc2nc(-c3ccc(SCc4ccccc4)cc3)[nH]c12`, the T/C [1] is reported as 95 % of control, the T/C [2] is reported as 94 % of control and the T/C [3] is reported as 93 % of control.
In the case of `O=C1C(Br)=C(Br)C(=O)C1(Br)Br`, the T/C (dose: 6.25 mg/kg/injection, schedule: Q01DX009 (ip), vehicle: saline with Tween-80) is reported as 118 % of control, the T/C (dose: 6.25 mg/kg/injection, schedule: Q04DX003 (ip), vehicle: saline with Tween-80) is reported as 100 % of control and the T/C (dose: 12.5 mg/kg/injection, schedule: Q04DX003 (ip), vehicle: saline with Tween-80) is reported as 100 % of control. The T/C (dose: 25.0 mg/kg/injection, schedule: Q04DX003 (ip), vehicle: saline with Tween-80) was 120 % of control.
In the case of `Cc1ccc(S(=O)(=O)N/N=C2/C=CC3(CCCCC3)CC2)cc1`, the T/C [7] is reported as 109 % of control, the T/C [8] is reported as 102 % of control and the T/C [9] is reported as 111 % of control.
With `Cc1cc(C2(c3cc(C)c(O)c(Br)c3)OS(=O)(=O)c3ccccc32)cc(Br)c1O` the T/C [1] was 99 % of control, the T/C [2] was 102 % of control and the T/C [3] was 90 % of control.
With `COc1cc(/C=C2/C(=O)N(c3ccccc3)N=C2C)cc(OC)c1OC` the T/C (dose: 60.0 mg/kg/injection, schedule: Q01DX005 (ip), vehicle: Klucel (hydroxypropylcellulose) (HPC)) was 108 % of control, the T/C (dose: 120.0 mg/kg/injection, schedule: Q01DX005 (ip), vehicle: Klucel (hydroxypropylcellulose) (HPC)) was 104 % of control and the T/C (dose: 240.0 mg/kg/injection, schedule: Q01DX005 (ip), vehicle: Klucel (hydroxypropylcellulose) (HPC)) was 105 % of control.
